Assay results taken from patent US20180280435A1, “T CELL DELIVERY OF MDA-7/IL-24 TO IMPROVE THERAPEUTIC ERADICATION OF CANCER AND GENERATE PROTECTIVE ANTITUMOR IMMUNITY” (VIRGINIA COMMONWEALTH UNIVERSITY, priority 2015, published 2018).

B1: MDA-7/IL-24 protein: Melanoma differentiation associated gene-7/Interleukin-24, secreted protein of the IL-10 family (protein)
chain: QEFHFGPCQVKGVVPQKLWEAFWAVKDTMQAQDNITSARLLQQEVLQNVSDAESCYLVHTLLEFYLKTVFKNYHNRTVEVRTLKSFSTLANNFVLIVSQLQPSQENEMFSIRDSAHRRFLLFRRAFKQLDVEAALTKALGEVDILLTWMQKFYKL

How the values were obtained:
CD11b+Gr-1+MDSCs = assay: MDSC frequency after MCL-1 inhibitor in tumor-bearing mice (FACS); format: in vivo
Method: FIG. 6. Potential immune modulation by MCL-1 inhibition. MCL-1 inhibitor reduces MDSCs in tumor-bearing mice. Tumor-bearing mice received BI-97C1 (Sabutoclax) (5 mg/kg or 20 mg/kg) i.p. or left untreated. 24 h later, splenic CD11b+GR-1+MDSCs were assessed by FACS.
Reduction of MDSCs could be explained by the direct cytotoxic effect of BI-97C1 (Sabutoclax), due to its ability to abrogate Bcl-2 protein functions.

CD8+ T cells = assay: T cell proliferation, 3H-thymidine (TdR) incorporation after anti-CD3/CD28 stimulation; format: cell-based; settings: 20 ng/ml protein
Method: (§1) A. CD8+ T cells were stimulated with anti-CD3/CD28 antibodies in the presence or absence of purified MDA-7/IL-24 protein (20 ng/ml). Cell proliferation was measured using 3H-thymidine (TdR) incorporation assays. P<0.05. B. C57BL/6 mice were injected i.v. with MDA-7/IL-24 protein (10 μg) or PBS. 48 h later, lymph node cells were assessed for IFN-γ-producing CD8+ T cells by intracellular staining.
(§2) The clinical application of immunotherapy is limited by the escape mechanisms cancer cells employ to avoid immune destruction due to immunoediting (e.g., selection of non-immunogenic or antigen loss cancer cell variants) and other immunosuppressive mechanisms at the tumor site. Since cancer-specific toxicity of MDA-7/IL-24 is antigen-independent, the delivery of a cancer-suicide agent in combination with T-cells may overcome the acquired tumor resistance to T-cell therapy. Intriguingly, MDA-7/IL-24 protein enhanced the proliferation of T cells upon TCR ligation (FIG. 8A). Treatment of mice with recombinant MDA-7/IL-24 protein increased the frequency of IFN-γ-expressing CD8+ T cells (FIG. 8B), supporting a role of MDA-7/IL-24 as a pro-Th 1 cytokine.

[1] = test system: IFN-γ-producing CD8+ T cells; assay: IFN-γ-producing CD8+ T cells in lymph nodes after i.v. protein (intracellular staining); format: in vivo, C57BL/6 mice; settings: 10 μg i.v., 48 h later, lymph node cells
Method: as §1, §2

| Molecule | frequency of CD11b+Gr-1+MDSCs (CD11b+Gr-1+MDSCs; single administration i.p. (5 mg/kg or 20 mg/kg), splenic MDSCs 24 h later) | toxicity (CD11b+Gr-1+MDSCs; single administration in tumor-bearing mice) | proliferation of T cells upon TCR ligation (CD8+ T cells) | frequency of IFN-γ-expressing CD8+ T cells [1] |
| --- | --- | --- | --- | --- |
| Cc1cc2c(C(=O)NC[C@H](C)c3ccccc3)c(O)c(O)cc2c(O)c1-c1c(C)cc2c(C(=O)NC[C@H](C)c3ccccc3)c(O)c(O)cc2c1O [BI-97C1, Sabutoclax] | substantially reduced | without inducing toxicity | – | – |
| B1 | – | – | enhanced | increased |
